The values that follow come from PMC4033654 (Journal of Medicinal Chemistry, 2014).

The target of one data set is recombinant TDP1 (Homo sapiens, UniProt Q9NUW8). The experiment in a line: Gel-based assay measuring the inhibition of recombinant TDP1. The class given is biochemical.
Data set [1] concerns all human cancer cell lines successfully tested. The experiment in a line: NCI60 anti-proliferative screen, all cell lines. The class given is cell-based.
In a further data set the test system is MCF-7. To be noted: read-out: cytotoxicity GI50, breast MCF-7; cited from earlier work.
A further data set concerns UACC-62. The conditions noted are these: read-out: cytotoxicity GI50, melanoma UACC-62; cited from earlier work.
Another data set has as its system DU-145. The conditions noted are these: read-out: cytotoxicity GI50, prostate DU-145; cited from earlier work.
A further data set relates to HCT-116. To be noted: read-out: cytotoxicity GI50, colon HCT-116; cited from earlier work.
A further data set relates to HOP-62. The conditions noted are these: read-out: cytotoxicity GI50, lung HOP-62; cited from earlier work.
For a further data set, the system named is OVCAR-3. To be noted: read-out: cytotoxicity GI50, ovarian OVCAR-3; cited from earlier work.
The next data set relates to SN12C. The conditions noted are these: read-out: cytotoxicity GI50, renal SN12C; cited from earlier work.
The test system of the next data set is MDR-1. The conditions noted are these: cited from earlier work.
The next data set deals with ABCG2. To be noted: cited from earlier work.
A further data set relates to TDP1. To be noted: cited from earlier work.

recombinant TDP1, sequence (Q9NUW8 whole entry): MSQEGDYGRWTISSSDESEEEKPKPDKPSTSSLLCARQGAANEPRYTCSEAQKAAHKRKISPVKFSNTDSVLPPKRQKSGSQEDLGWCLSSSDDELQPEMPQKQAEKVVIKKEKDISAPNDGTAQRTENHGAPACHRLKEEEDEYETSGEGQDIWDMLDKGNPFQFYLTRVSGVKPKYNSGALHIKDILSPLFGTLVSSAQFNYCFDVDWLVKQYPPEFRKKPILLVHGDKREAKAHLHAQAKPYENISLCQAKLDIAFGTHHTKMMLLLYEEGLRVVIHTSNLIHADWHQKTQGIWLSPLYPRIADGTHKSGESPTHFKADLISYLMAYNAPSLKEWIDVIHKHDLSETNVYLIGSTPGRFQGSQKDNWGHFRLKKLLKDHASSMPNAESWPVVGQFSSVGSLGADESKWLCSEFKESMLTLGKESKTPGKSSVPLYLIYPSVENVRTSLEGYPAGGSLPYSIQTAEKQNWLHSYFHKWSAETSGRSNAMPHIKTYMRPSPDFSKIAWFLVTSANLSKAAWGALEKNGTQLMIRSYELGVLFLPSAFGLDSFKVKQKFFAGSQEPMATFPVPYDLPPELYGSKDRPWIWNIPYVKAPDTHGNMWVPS

With `C=CCOc1cc2c3c(n(CCCN4CCOCC4)c(=O)c2cc1OC)-c1cc2c(cc1C3=O)OCO2` [compound 15, 2-(Allyloxy)-3-methoxy-6-(3-morpholinopropyl)-5H-[1,3]dioxolo[4′,5′:5,6]indeno [1,2-c]isoquinoline-5,12(6H)-dione], the “TDP1 inhibitory activity” value on recombinant TDP1 was “no detectable TDP1 inhibitory activity”. The “GI50 against various cell lines” value in data set [1] is recorded as “submicromolar”.
Consider `COc1cc2c(=O)n(CCCN3CCOCC3)c3c(c2cc1OCCCN1CCN(C)CC1)C(=O)c1cc2c(cc1-3)OCO2` [compound 21, 3-Methoxy-2-(3-(4-methylpiperazin-1-yl)propoxy)-6-(3-morpholinopropyl)-5H-[1,3]dioxolo[4′,5′:5,6]indeno[1,2-c]isoquinoline-5,12(6H)-dione], for which the “TDP1 inhibitory activity” value at recombinant TDP1 is on record as “no TDP1 inhibitory activity”.
Consider `COc1cc2c(=O)n(CCCN3CCOCC3)c3c(c2cc1O)C(=O)c1cc2c(cc1-3)OCO2` [compound 13], for which the GI50 in the data set with MCF-7 was 0.1 µM.
Turning to `COc1cc2c3c(n(CCCNCCO)c(=O)c2cc1OC)-c1cc2c(cc1C3=O)OCO2` [compound 5], the GI50 with UACC-62 was 0.03 µM; in the data set on DU-145 it was under 0.01 µM; with HCT-116, 0.1 µM; in the data set with HOP-62, 0.02 µM; in the data set on OVCAR-3, 0.5 µM; in the data set with MCF-7 it was under 0.01 µM. Also, the GI50 in the data set on SN12C is under 0.01 µM.
With `COc1cc2c3c(n(CCCN4CCOCC4)c(=O)c2cc1OC)-c1cc2c(cc1C3=O)OCO2` [Indotecan (6), indotecan], the “substrate for the MDR-1 efflux pump” value with MDR-1 is “not a substrate”. For the same molecule, the “substrate for the ABCG2 efflux pump” value with ABCG2 is given as “not a substrate”.
Turning to `COc1cc2c(=O)n(CCCN3CCOCC3)c3c(c2cc1OCCCN1CCOCC1)C(=O)c1cc2c(cc1-3)OCO2` [compound 20, 3-Methoxy-2-(3-morpholinopropoxy)-6-(3-morpholinopropyl)-5H-[1,3]dioxolo[4′,5′:5,6]indeno[1,2-c]isoquinoline-5,12(6H)-dione], the “TDP1 inhibitory activity” value on recombinant TDP1 was “no TDP1 inhibitory activity”. Moreover, the “GI50 against various cell lines” value in [1] is on record as “submicromolar”.
Turning to `COc1cc2c3c(n(CCCn4ccnc4)c(=O)c2cc1OC)-c1cc2c(cc1C3=O)OCO2` [indimitecan (7), indimitecan], in the data set with MDR-1, the “substrate for the MDR-1 efflux pump” value is “less affected than the camptothecins”. Besides, in the data set on ABCG2, the “substrate for the ABCG2 efflux pump” value is reported as “less affected than the camptothecins”.
Turning to `COC(=O)COc1cc2c3c(n(CCCN4CCOCC4)c(=O)c2cc1OC)-c1cc2c(cc1C3=O)OCO2` [compound 24, Methyl 2-((3-Methoxy-6-(3-morpholinopropyl)-5,12-dioxo-6,12-dihydro-5H-[1,3]dioxolo[4′,5′:5,6]indeno[1,2-c]isoquinolin-2-yl)oxy)acetate], the “GI50 against various cell lines” value in data set [1] was “low micromolar”.
On the same count and under the same terms, the entry for `COc1cc2c(=O)n(CCCN3CCOCC3)c3c(c2cc1OCCCN1CCCCC1)C(=O)c1cc2c(cc1-3)OCO2` [compound 22, 3-Methoxy-6-(3-morpholinopropyl)-2-(3-(piperidin-1-yl)propoxy)-5H-[1,3]dioxolo[4′,5′:5,6]indeno[1,2-c]isoquinoline-5,12(6H)-dione] is “low micromolar”.
For the molecule `N=C(N)c1ccc(-c2ccc(-c3ccc(C(=N)N)cc3)o2)cc1` [Furamidine (8), Furamidine], the “TDP1 inhibitor potency” value with TDP1 was “micromolar-range”.
With `COc1cc2c(=O)n(CCCN3CCOCC3)c3c(c2cc1OCCCN)C(=O)c1cc2c(cc1-3)OCO2.Cl` [compound 17, 2-(3-Aminopropoxy)-3-methoxy-6-(3-morpholinopropyl)-5H-[1,3]dioxolo[4′,5′:5,6]indeno[1,2-c]isoquinoline-5,12(6H)-dione], the “GI50 against various cell lines” value in data set [1] was “submicromolar”.
